Our source for the IC50 values is ChEMBL document CHEMBL5727281, “N2-phenyl-pyrido[3,4-D]pyrimidine-2, 8-diamine derivatives and their use as Mps1 inhibitors” (2019).

In this test the target is T1, Dual specificity protein kinase TTK (Homo sapiens, UniProt P33981).
T1 sequence (P33981 whole entry): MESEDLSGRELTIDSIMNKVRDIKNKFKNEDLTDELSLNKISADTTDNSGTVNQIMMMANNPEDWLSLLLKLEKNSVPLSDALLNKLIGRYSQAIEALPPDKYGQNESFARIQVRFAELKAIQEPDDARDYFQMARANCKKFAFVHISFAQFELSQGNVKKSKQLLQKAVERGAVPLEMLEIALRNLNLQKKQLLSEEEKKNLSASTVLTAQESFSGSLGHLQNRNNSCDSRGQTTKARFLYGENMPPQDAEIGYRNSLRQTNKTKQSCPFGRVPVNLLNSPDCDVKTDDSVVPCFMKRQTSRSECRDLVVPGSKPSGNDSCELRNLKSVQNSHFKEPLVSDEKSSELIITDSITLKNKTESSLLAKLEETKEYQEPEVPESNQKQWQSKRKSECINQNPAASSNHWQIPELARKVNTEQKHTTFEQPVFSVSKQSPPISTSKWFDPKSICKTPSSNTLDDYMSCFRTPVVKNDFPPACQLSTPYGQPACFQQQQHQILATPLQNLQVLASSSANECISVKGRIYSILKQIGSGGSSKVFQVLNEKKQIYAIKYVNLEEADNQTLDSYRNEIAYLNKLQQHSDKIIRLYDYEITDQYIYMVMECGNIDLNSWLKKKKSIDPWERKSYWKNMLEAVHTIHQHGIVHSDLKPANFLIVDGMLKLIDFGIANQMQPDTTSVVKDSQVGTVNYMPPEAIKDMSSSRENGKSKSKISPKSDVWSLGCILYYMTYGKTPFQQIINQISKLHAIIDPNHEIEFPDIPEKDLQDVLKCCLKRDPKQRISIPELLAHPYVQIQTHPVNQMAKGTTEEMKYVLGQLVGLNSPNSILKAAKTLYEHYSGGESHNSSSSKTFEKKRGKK
Briefly: The reaction was carried out for 60 min at room temperature and stopped by the addition of buffer (10 μl) containing 20 mM EDTA, 0.05% (v/v) Brij-35, in 0.1M HEPES-buffered saline (Free acid, Sigma, UK). […] The % inhibition of the compounds is calculated relative to the means of selected control wells. […] The % inhibitions at each concentration are then fitted to a 4 parameter logistic fit.

What is called IC50 is the concentration that gives 50% inhibition. Consider `CCOc1cc(-c2nncn2C)ccc1Nc1ncc2cc(C)nc(N3CCC(C)(OC)CC3)c2n1`, for which the IC50 is 3 nM.

For the molecule `CCOc1cc(-c2nncn2C)ccc1Nc1ncc2cc(C)nc(N3CC(F)(F)C3)c2n1`, the IC50 was 6 nM.

As to `CCOc1cc(-c2nncn2C)ccc1Nc1ncc2cc(C)nc(N3CCC(C)(C#N)C3)c2n1` (stereo not drawn), the IC50 is 3 nM.

Regarding `CCOc1cc(-c2nncn2C)ccc1Nc1ncc2cc(C)nc(N3CC(O)(CC)C3)c2n1`, the IC50 is 4 nM.

Take `CCOc1cc(-c2nncn2C)ccc1Nc1ncc2cc(C)nc(N3CC4(CCCC4)C3)c2n1`: the half-inhibitory concentration (IC50) is 2 nM.

Turning to `COc1cc(-c2cnc(C)n2C)ccc1Nc1ncc2cc(C)nc(NCC3(C)CCOC3)c2n1` (stereo not drawn), the half-maximal inhibitory concentration (IC50) was 2 nM.

Consider `CCOc1cc(-c2nncn2C)ccc1Nc1ncc2cc(C)nc(N3CCC(C#N)C3)c2n1` (stereo not drawn), for which the IC50 is 3 nM.

Turning to `COc1cc(-c2cnc(C)n2C)ccc1Nc1ncc2cc(C)nc(N3CC(C)(C#N)C3)c2n1`, the IC50 was 2 nM.
